These are literature values, as cited in patent US11801302B2, “Formulations and uses thereof” (priority 2020, dated 2023).

For series [1], the system named is patients who respond with increased carboxylation of osteocalcin. To be noted: subset of patients with increased carboxylation of osteocalcin.
Series [2] concerns atypical/precancerous stem cells. To be noted: used separately or together.
A further series has as its system anxiety. Conditions: in vivo.
In the next series the test system is diuresis. To be noted: dose-dependent; only when animals were fluid overloaded, not euvolemic.
The test system of series [3] is inflammatory markers PPARγ and TNFα. Conditions: with emu oil; animal model of ulcerative colitis.
The test system of a further series is normal mice. Conditions: observed only at a dose of 30 mg/kg in normal mice.
The test system of a further series is blood pressure. Conditions: in some cases patients no longer needing antihypertensive medications.
Series [4] relates to anger, mitochondrial function. Conditions: in vivo.
Series [5] deals with cholesterol transport-related protein (NPC1L1). To be noted: cell model.
In the next series the test system is wound. Conditions: setting of a wound.
In series [6] the test system is UV-induced hyperpigmentation of the skin. Conditions: in vivo.
Another series deals with chronic plaque psoriasis. To be noted: topical application.
Series [7] concerns hyperactivity induced by MK-801. Conditions: in vivo.
The subject of a further series is bone. To be noted: in vivo.
The conditions of series [8]: compared with other vitamin K homologs.
The subject of another series is HDL and LDL cholesterol. Conditions: in vivo.
A further series has as its system cancer. Conditions: in vitro and in vivo.
The test system of series [9] is skin, prostate, breast, and ovarian cancer. To be noted: preclinical models of skin.
In series [10] the test system is central benzodiazepine receptor.

Entries after “also recorded” stand apart in the source; their conditions may differ.

With `CC(C)=CCC/C(C)=C/CO` [geraniol], in the series on GLUT2 transporter (compared to diabetic control), the kidney glycogen content result is “release of glucose from the liver; also doubled” and the renal glucose output entry is on record as “kidney glycogen content, doubling renal glucose”. Also, the GLUT2 transporter result with GLUT2 transporter (geraniol from Cymbopogon martinii) is “inhibition of GLUT2 transporter by geraniol”.

Take `CC(C)=CCC/C(C)=C/CC/C(C)=C/CC/C(C)=C/CC/C(C)=C/CC/C(C)=C/CC/C(C)=C/CC1=C(C)C(=O)c2ccccc2C1=O` [Vitamin K2 (MK7)]: in [1], the “body weight, abdominal and visceral fat” value was “reduced body weight, abdominal and visceral”. Take `C=C(C)C1CCC(C)(O)C(O)C1` (stereo not drawn) [limonene-1-2-diol]: the “production of IFN-γ, IL-2, TNF-α, IL-4 and IL-13 by CD3(+) CD4(+) T cells; IFN-γ, IL-2, and TNF-α by CD3(+) CD8(+) T cells” value (“production of IFN-γ, IL-2, TNF-α” below) in the series with T lymphocytes was “viability (PMID 23059811) by inhibiting”. On to `COc1cc(/C=C/C(=O)CC(=O)/C=C/c2ccc(O)c(OC)c2)ccc1O` [curcumin, diferuloylmethane], for which the “number of atypical/precancerous stem cells” value in [2] is recorded as “reduced the number of atypical/precancerous stem cells”.

For the compound `C=C(C)[C@H]1CC=C(C)CC1` [D-limonene], the “production of IFN-γ, IL-2, TNF-α” value in the series on T lymphocytes was “viability (PMID 23059811) by inhibiting”. The “anxiolytic properties with flumazenil” value with anxiety was “is NOT reversed by flumazenil, indicating a”. Further, in the series on diuresis, the diuretic effect result is given as “more capable. D-limonene has a mild diuretic”. Regarding `CC1(C)[C@@H](O[C@H]2O[C@H](C(=O)O)[C@@H](O)[C@H](O)[C@H]2O[C@@H]2O[C@H](C(=O)O)[C@@H](O)[C@H](O)[C@H]2O)CC[C@]2(C)[C@H]3C(=O)C=C4[C@@H]5C[C@@](C)(C(=O)O)CC[C@]5(C)CC[C@@]4(C)[C@]3(C)CC[C@@H]12` [glycyrrhizin], in series [3], the “anti-inflammatory effect by modulating PPARγ and TNFα” value is given as “synergizes with emu oil to exert a stronger anti-”. Turning to `COc1cc(CCC(C)=O)ccc1O` [zingerone], the diuretic effect result with normal mice is on record as “Oil, zingerone exhibited a mild diuretic effect”. On to `CCCCCCCC/C=C\CCCCCCCC(=O)O` [Oleic acid (OA)], for which the blood pressure in the series on blood pressure was 21181463). OA has been shown to reduce blood. Further, the “lipophilic penetration of skin cells” value with skin cells was “Oleic acid (OA) enhances lipophilic penetration”. The anger entry in series [4] is on record as “unexpectedly has been shown to decrease anger”. In the series on pain and itch receptors, the “pain and itch receptors” value was “directly inhibits pain and itch receptors (PMID”. Moreover, the “expression of cholesterol transport-related protein (NPC1L1)” value in series [5] is reported as 2235880). OA has been shown to decrease. Besides, the “thickness of the necrotic tissue layer in the wound” value with wound is “wound healing tissue mass, while decreasing”. Regarding `CCCCC/C=C\C/C=C\CCCCCCCC(=O)O` [Linoleic acid], the “UV-induced hyperpigmentation of the skin” value in [6] was “shown to lighten UV-induced”. Regarding `C=C(C)[C@@H]1CC=C(C(=O)O)CC1` [perillic acid], the “production of IFN-γ, IL-2, TNF-α” value with T lymphocytes was “viability (PMID 23059811) by inhibiting”. Consider `C=C1/C(=C\C=C2/CCC[C@]3(C)[C@@H]([C@H](C)/C=C/[C@@H](O)C4CC4)CC[C@@H]23)C[C@@H](O)C[C@@H]1O` [calcipotriene], for which the chronic plaque psoriasis entry in the series on chronic plaque psoriasis was “topical application of calcipotriene improves”. In the case of `O=c1c(O)c(-c2ccc(O)c(O)c2)oc2cc(O)cc(O)c12` [Quercetin], in series [7], the “hyperactivity induced by NMDA receptor antagonist MK-801” value is “transmission and alleviates the hyperactivity”. For the compound `CC(C)=CCC/C(C)=C/CC/C(C)=C/CC/C(C)=C/CC/C(C)=C/CC/C(C)=C/CC/C(C)=C/CC1=C(C)C(=O)c2ccccc2C1=O` [MK7], in the series with bone, the bone mineral density result is “other vitamin K homologs. MK7 increases”. Also, in series [8], the bioavailability result is “higher bioavailability” and the half-life result is listed as “longer half-life”. For the compound `CCCCCCCCCCCCCCCCCC(=O)O` [Stearic acid], in the series with HDL and LDL cholesterol, the ““bad” cholesterol LDL” value is given as “cholesterol HDL while reducing the “bad””; the ““good” cholesterol HDL” value was 10945745) and can increase the “good”. Consider `O=C(O)c1cc(O)c(O)c(O)c1` [Gallic Acid], for which the “inhibitory properties against cancer” value in the series on cancer is reported as “Plant polyphenol with strong inhibitory”. Consider `O=c1cc(-c2ccc(O)cc2)oc2cc(O)cc(O)c12` [Apigenin], for which, in series [9], the antitumor effect entry is “exerts an antitumor effect in preclinical models”. In [10] (benzodiazepine antagonist flumazenil), the “anxiolytic and mild sedative effects when flumazenil is administered first” value is on record as “(PMID 7617761), an effect that is reversible”. The “effects as central benzodiazepine receptor ligand” value in [10] (in vivo) is “ligand with anxiolytic and slight sedative; also recorded: ligand with anxiolytic and mild sedative effects”.
